Measurements from US7741472B2, “Polynucleotide containing a phosphate mimetic” (Roche Diagnostics Operations, Inc., priority 2005, dated 2010).
Strand notation (5' to 3'): a small letter for the sugar, then the base; units joined by * are phosphorothioate-linked, units joined directly phosphodiester-linked; [ ] holds rarer units or linkages, { } end groups; capitals alone tell only the bases. [RhoB] = phosphoramidate linkage P=N-S(O)2-rhodamine-B replacing P=O; d = 2'-deoxy (DNA); {P} = phosphate

Key:
[1] = test system: human Factor V DNA; test: Real time PCR with modified primers (crossing point); format: biochemical; details: LIGHTCYCLER 1.2, primer combinations SEQ ID NO: 1 / SEQ ID NO: 2, 640 nm channel
Method: A quantitative real time PCR of human Factor V DNA was carried out on a LIGHTCYCLER 1.2 instrument (Roche Diagnostics GmbH) in order to analyse the effect of phosphate mimetics on primer elongation. The P═N-pPh-NAc mimetic which was introduced at different positions of a primer pair used for amplification of human Factor V DNA. The modified primers were, synthesized according to example 4. Purification was done by the Reversed Phase chromatography of example 3 in the Trityl on mode. Detritylation was performed by treating with 80% acetic acid for 20 min.
This primers were used in combination with a pair of fluorescein/LIGHTCYCLER Red 640 FRET hybridization probes according to example 6. The Fluorescein probe and the 5′ LIGHTCYCLER Red 640 probe (SEQ ID NO: 3 and 4) were kept constant. Various combinations of modified and unmodified primers were tested. As reference unmodified primers were used. The effect on the crossing point which is a measure for the amplification efficiency was evaluated.
The real time monitoring was carried out over 45 cycles using the 2nd derivative threshold method in which, the fluorescence signal was measured in a detection channel that is specific for the LIGHTCYCLER Red 640 emission (at 640 nm) and the arithmetic background correction mode was used to normalize the initial signal.
The absolute fluorescence signals are measured as above in the 640 nm channel and subsequently the first derivative was calculated from this. The crossing points are shown in the following table as a measure for the amplification efficiency when using different modified primers.

[2] = test system: factor V DNA; test: Real time PCR of factor V DNA with fluorescein/lissamine FRET hybridization probes; format: biochemical; details: LIGHTCYCLER 2.0, 610 nm channel, unmodified fluorescein donor probe
Method: Primers were used in combination with a pair of fluorescein/lissamine FRET hybridization probes where Lissamine (rhodamineB) acted as a FRET acceptor. Quantification curves were recorded and the cp value was determined as a function of the concentration of the target nucleic acid.
(§1) A teal time PCR and melting curve analysis were carried out according to example 6 for the amplification of 10^4 and 10^6 copies of a factor V DNA fragment. A fluorescein donor probe according to example 6 (SEQ ID NO: 4) which was not further modified and a FRET acceptor probe according to example 7b (SEQ ID NO: 3) were used for this.
The fluorescence signal was measured in the 610 nm detection channel. The 610/530 background correction mode was used to normalize the raw signal. A cp value of 22 was determined for 10^6 copies and a cp of 26 was determined for 10^4 copies.

[3] = test system: factor V DNA fragment, wild type; test: Melting curve analysis with lissamine acceptor probe, wild type; format: binding; details: 10^6 copies
Method: as §1
(§2) The melting point for the wild type was determined as 64.69° C. and 56.24° C. was determined as the melting point for the mutant (10^6 copies).

[4] = test system: factor V DNA fragment, mutant; test: Melting curve analysis with lissamine acceptor probe, mutant; format: binding; details: 10^6 copies
Method: as §1, §2

5′ GAGAGACATCGCCTCTGGGCTA / 5′ TGT TAT CAC ACT p1GGT GCT AA: primer combination; p1 is a P = N-pPh-NAc mimetic
Cp (crossing point, measure for the amplification efficiency) [1]: 21.36

FRET acceptor probe according to example 7b: SEQ ID NO: 3 FRET acceptor probe; p* = P = NS(O)2-rhodamine-B (DNA dA[RhoB]dGdGdGdAdTdCdTdGdCdTdCdTdTdAdCdAdGdAdTdTdAdGdAdAdGdTdAdGdTdCdCdTdAdTdT-{P})
cp value ([2]; 10^4 copies): 26 | cp value ([2]; 10^6 copies): 22 | melting point for the wild type [3]: 64.69 °C | melting point for the mutant [4]: 56.24 °C
